The record followed here is US20050288347A1, “Certain triazole-based compounds, compositions, and uses thereof” (priority 2004, published 2005).

The structures appear in SMILES notation. Entries after “also recorded” stand apart in the source; their conditions may differ.

The first assay addresses protein kinase. The assay is described as follows: HTS ATP-utilizing enzyme assay, off-chip mobility-shift format (Caliper HTS 250). The settings on record: kinase(s) for which the compound exhibits protein kinase inhibitory activity; test compound 10 μM; active = greater than three-sigma from the mean activity of inactive compounds. The class given is biochemical, human. Put shortly:
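Kinase reactions ran 2.5 h at 20 to 22 °C with test compound at 10 μM, in a HEPES pH 7.5 master buffer containing Triton X-100 and BSA. Peptide substrate and phosphorylated product separated by mobility shift; inhibition normalized to DMSO (0%) and EDTA (100%) controls, with three-sigma thresholds for hits.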
`CCOC(=O)CSc1nnc(COc2ccc3ccccc3c2)n1C`: the Kinase result is on record as “MAPKAPK-2”. For `Cn1c(S)nnc1-c1ccc(NC(=O)c2ccccc2)cc1` [N-(4-(5-mercapto-4-methyl-4H-1,2,4-triazol-3-yl)phenyl)benzamide], the Kinase result was “GSK3-α; also recorded: CHEK2”. Consider `COc1ccc(C)cc1NC(=O)CSc1nnc(-c2ccc(Br)cc2)n1-c1ccccc1`, for which the Kinase result is given as “SYK”. As to `O=C(CSc1nnc(-c2ccccc2O)n1Cc1ccco1)OCc1ccccc1`, the Kinase result is “GSK3-α”. As to `Cc1cc(NC(=O)CSc2nnc(-c3cccnc3)n2-c2ccc(F)cc2)no1`, the Kinase entry is on record as “FYN”. Still for that read-out and setting: with `CCn1c(CNc2ccc(C)cc2)nnc1SCC(=O)Nc1cccc(Cl)c1` the entry was “CHEK2”; with `COc1ccc(C(=O)CSc2nnc(CNc3ccc(C)cc3)n2-c2ccccc2)cc1`, “CHEK2 and SYK”. Consider `Cn1c(SCC(N)=O)nnc1-c1ccncc1` [2-(4-methyl-5-(pyridin-4-yl)-4H-1,2,4-triazol-3-ylthio)acetamide], for which the Kinase result is “AKT1”. In the case of `Cc1nnc(SCC(=O)Nc2cccc(N)c2)n1-c1ccccc1`, the Kinase entry is given as “FYN”. With `CCOc1cc(NC(=O)c2cccs2)c(OCC)cc1NC(=O)CSc1nnc(-c2ccc(O)cc2)n1C`, the Kinase result is given as “PDGFRR-α”. As for `Cc1ccc(-n2c(S)nnc2CNc2ccc(F)cc2)cc1` [5-((4-fluorophenylamino)methyl)-4-p-tolyl-4H-1,2,4-triazole-3-thiol], the Kinase entry is on record as “AURORA-A; also recorded: GSK3-α; also recorded: GSK3-β”.

With `COc1ccc(-n2c(S)nnc2-c2ccc(NS(=O)(=O)c3ccc(C)cc3)cc2)cc1`, the Kinase entry is “GSK3-β; also recorded: GSK3-α; also recorded: AURORA-A”. For `O=C(CSc1nnc(Cc2ccccc2)[nH]1)c1ccc2c(c1)OCCO2`, the Kinase entry was “GSK3-α”. On to `Cc1nnc(SCC(=O)O)[nH]1` [2-(5-methyl-4H-1,2,4-triazol-3-ylthio)acetic acid], for which the Kinase entry is reported as “GSK3-β; also recorded: GSK3-α”.

As for `NC(=O)CSc1nnc(COc2cccc3cccnc23)n1-c1ccccc1`, the Kinase entry is “MAPKAPK-2”. Turning to `Cc1ccc(NC(=O)CSc2nnc(-c3ccccc3O)n2-c2ccc(C)cc2)cc1`, the Kinase result is on record as “AURORA-A”.

Consider `CC(Sc1nnc(-c2ccc(O)cc2)n1Cc1ccco1)C(=O)Nc1ccc([N+](=O)[O-])cc1` (stereo not shown), for which the Kinase entry is “LCK”. As to `Cn1c(SCC(=O)N2CCOCC2)nnc1-c1ccco1` [2-(5-(furan-2-yl)-4-methyl-4H-1,2,4-triazol-3-ylthio)-1-morpholinoethanone], the Kinase entry was “FYN”.

As to `COCCn1c(SCC(=O)Nc2cccc(O)c2)nnc1-c1ccncc1`, the Kinase result is “AKT1”. On the same count and under the same terms, with `COc1ccc(-n2c(SCC(=O)Nc3cccc(C(C)=O)c3)nnc2-c2ccc(O)cc2)cc1` the entry was “GSK3-β; also recorded: GSK3-α”; with `CCn1c(SCC(=O)OC)nnc1-c1ccc(O)cc1` [methyl 2-(4-ethyl-5-(4-hydroxyphenyl)-4H-1,2,4-triazol-3-ylthio)acetate], “GSK3-β; also recorded: GSK3-α; also recorded: CHEK1”.

On to `COc1ccc(NCc2nnc(S)n2-c2ccc(C)cc2)cc1` [5-((4-methoxyphenylamino)methyl)-4-p-tolyl-4H-1,2,4-triazole-3-thiol], for which the Kinase entry was “AURORA-A and PDGFRR-α and MSK2”.

Consider `O=C(CSc1nnc(Cc2ccccc2)n1C1CCCCC1)Nc1cccc(O)c1`, for which the Kinase result is listed as “AURORA-A”. Same read-out and setting: with `Cn1c(SCC(=O)OC2CCCCC2)nnc1-c1cc2ccccc2cc1O` the entry was “AURORA-A; also recorded: DAPK1; also recorded: c-TAK1”; with `O=C(CSc1nnc(-c2cc3ccccc3cc2O)n1Cc1ccco1)c1ccc(F)cc1`, “AURORA-A”.

Turning to `COc1ccc(OCc2nnc(SCC(=O)O)n2-c2ccc(C)cc2)cc1`, the Kinase result is reported as “AURORA-A”. With `CCn1c(SCC(=O)N2CCCc3ccccc32)nnc1-c1cc2ccccc2cc1O`, the Kinase entry is reported as “CDK2-cyclinA; also recorded: AURORA-A; also recorded: DAPK1”. Still for that read-out and setting: next, `CC(C)(C)c1nnc(SCC#N)[nH]1` [2-(5-tert-butyl-4H-1,2,4-triazol-3-ylthio)acetonitrile]: “DYRK2; also recorded: GSK3-α”; `CC(C)OC(=O)CSc1nnc(-c2cccnc2)n1Cc1ccco1`: “AKT1”. `Cc1ccc(NC(=O)CSc2nnc(CNc3cccc(C(F)(F)F)c3)n2-c2ccccc2)cc1`: the Kinase entry is reported as “MAPKAPK-2”. On to `O=C(CSc1nnc(-c2ccc(O)cc2)n1CC1CCCO1)NCCc1ccccc1` (stereo not shown), for which the Kinase result was “MSK1”. As to `CCn1c(SCC(=O)c2ccccc2)nnc1-c1cccnc1` [2-(4-ethyl-5-(pyridin-3-yl)-4H-1,2,4-triazol-3-ylthio)-1-phenylethanone], the Kinase result is listed as “SYK”. `COc1ccc(-n2c(CNc3ccccc3Cl)nnc2SCC(=O)Nc2ccc([N+](=O)[O-])cc2)cc1`: the Kinase entry was “CHEK2”. As to `CCn1c(S)nnc1-c1ccc(S(=O)(=O)N2CCN(C)CC2)cc1`, the Kinase entry is given as “GSK3-α; also recorded: GSK3-β”.

In the case of `COC(=O)c1ccc(NC(=O)CSc2nnc(-c3ccccc3O)n2-c2ccccc2OC)cc1`, the Kinase result is listed as “AURORA-A”.

Consider `Cc1ccc(-n2c(S)nnc2CNc2ccc(C)c(Cl)c2)cc1`, for which the Kinase entry is “GSK3-α; also recorded: AURORA-A”. Still for that read-out and setting: next, `Cn1c(S)nnc1COc1ccc2ccccc2c1` [4-methyl-5-((naphthalen-2-yloxy)methyl)-4H-1,2,4-triazole-3-thiol]: “GSK3-α”; `Cn1c(CNc2cccc(C(F)(F)F)c2)nnc1SCC(=O)Nc1ccc2c(c1)OCO2`: “AURORA-A”. On to `COCCn1c(SCC(=O)Nc2ccccc2C(=O)OC)nnc1-c1cc2ccccc2cc1O`, for which the Kinase entry is given as “AURORA-A; also recorded: DAPK1”.

The assay is the same for the next values; noted with them: test compound 10 μM; active = activity greater than three-sigma from the mean of the predominately inactive population for that enzyme.
As to `COC(=O)c1ccc(CSc2nnc(-c3cccc(C)c3)[nH]2)cc1` [methyl 4-((5-m-tolyl-4H-1,2,4-triazol-3-ylthio)methyl)benzoate], the “protein kinase against which the compound exhibits inhibitory activity (Table 3)” value was “AURORA-A; also recorded: FLT-3; also recorded: c-TAK1”. Take `Cc1cccc(-c2nnc(SCc3ccc(C(=O)O)cc3)[nH]2)c1` [4-((5-m-tolyl-4H-1,2,4-triazol-3-ylthio)methyl)benzoic acid]: the “protein kinase against which the compound exhibits inhibitory activity (Table 3)” value is on record as “FLT-3; also recorded: DYRK2; also recorded: AURORA-A”.

`CCOC(=O)c1ccc(CSc2nnc(-c3ccc([N+](=O)[O-])cc3)[nH]2)o1`: the “protein kinase against which the compound exhibits inhibitory activity (Table 3)” value is “AURORA-A”. Same read-out and setting: with `Cc1nnc(SCc2cccc(I)c2)[nH]1` [3-(3-iodobenzylthio)-5-methyl-4H-1,2,4-triazole] the entry was “AURORA-A; also recorded: GSK3-α; also recorded: DYRK2”; with `CCOc1ccc(Nc2nc(Cc3nnc(SCc4cccnc4)n3CC)cs2)cc1`, “CHEK2; also recorded: AURORA-A”. Take `COc1ccc(C(=O)NNC(=O)CSc2nnc(CNc3cccc(Cl)c3)n2CCc2ccccc2)cc1`: the “protein kinase against which the compound exhibits inhibitory activity (Table 3)” value is “PDGFRR-α and GSK3-β and CDK1”. Still for that read-out and setting: with `CCCCSc1nnc(-c2ccc(Cl)c(Cl)c2)[nH]1` [3-(butylthio)-5-(3 ,4-dichlorophenyl)-4H-1,2,4-triazole] the entry was “AURORA-A; also recorded: FLT-3; also recorded: GSK3-α”. Same read-out and setting: with `CCn1c(CNc2ccccc2Cl)nnc1SCCN1CCCCC1` the entry was “MAPKAPK-2”; with `CN(C)CCCSc1nnc(C(C)(C)C)[nH]1` [3-(5-tert-butyl-4H-1,2,4-triazol-3-ylthio)-N,N-dimethylpropan-1-amine], “c-TAK1”. Consider `CCc1nnc(SCC=C(C)C)n1CCc1ccccc1` [3-ethyl-5-(3-methylbut-2-enylthio)-4-phenethyl-4H-1,2,4-triazole], for which the “protein kinase against which the compound exhibits inhibitory activity (Table 3)” value was “GSK3-α”. In the case of `COC(=O)c1ccc(CSc2nnc(-c3cccs3)[nH]2)cc1` [methyl 4-((5-(thiophen-2-yl)-4H-1,2,4-triazol-3-ylthio)methyl)benzoate], the “protein kinase against which the compound exhibits inhibitory activity (Table 3)” value is listed as “AURORA-A; also recorded: FLT-3; also recorded: c-TAK1”. With `Cn1c(CNc2ccc(F)cc2)nnc1SCCN1CCOCC1`, the “protein kinase against which the compound exhibits inhibitory activity (Table 3)” value is reported as “PDGFRR-α”. For `COc1ccccc1-n1c(SCc2ccc(C(=O)O)cc2)nnc1-c1cccc(Cl)c1`, the “protein kinase against which the compound exhibits inhibitory activity (Table 3)” value is recorded as “AURORA-A”.

Take `Cc1ccc(-c2nnc(CSc3nnc(COc4ccccc4)n3-c3ccc(C)cc3)o2)cc1`: the “protein kinase against which the compound exhibits inhibitory activity (Table 3)” value was “GSK3-α”.

`CCOc1ccc(NCc2nnc(SCCN3CCCCC3)n2-c2ccccc2)cc1`: the “protein kinase against which the compound exhibits inhibitory activity (Table 3)” value is “PDGFRR-α and FYN”. Turning to `CCn1c(SCCSc2nnc(C3CCCCC3)n2CC)nnc1C1CCCCC1` [1,2-bis(5-cyclohexyl-4-ethyl-4H-1,2,4-triazol-3-ylthio)ethane], the “protein kinase against which the compound exhibits inhibitory activity (Table 3)” value is on record as “CHEK2”. With `COc1ccc(CCn2c(CCC3CCCC3)nnc2SCC=C(C)C)cc1OC`, the “protein kinase against which the compound exhibits inhibitory activity (Table 3)” value is reported as “GSK3-β; also recorded: GSK3-α”. Take `COC(=O)c1ccc(CSc2nnc(C)[nH]2)cc1` [methyl 4-((5-methyl-4H-1,2,4-triazol-3-ylthio)methyl)benzoate]: the “protein kinase against which the compound exhibits inhibitory activity (Table 3)” value is given as “DYRK2; also recorded: AURORA-A”. With `COc1ccc(N)cc1Cc1nnc(SCc2c(Cl)cccc2Cl)n1-c1ccccc1`, the “protein kinase against which the compound exhibits inhibitory activity (Table 3)” value is “PDGFRR-α and FLT-3 and FYN”. As for `CCn1c(SCC(=O)NNC(=O)c2ccc(OC)cc2)nnc1-c1ccc(O)cc1`, the “protein kinase against which the compound exhibits inhibitory activity (Table 3)” value is given as “GSK3-a; also recorded: AURORA-A”.

For `COc1ccccc1-n1c(SC(C)C(=O)NCc2ccco2)nnc1-c1ccccc1` (stereo not shown), the “protein kinase against which the compound exhibits inhibitory activity (Table 3)” value was “AKT1”.

In the case of `CN(C)CCCSc1nnc(-c2ccc([N+](=O)[O-])cc2)[nH]1` [N,N-dimethyl-3-(5-(4-nitrophenyl)-4H-1,2,4-triazol-3-ylthio)propan-1-amine], the “protein kinase against which the compound exhibits inhibitory activity (Table 3)” value is “c-TAK1”.
